From PMC6950571 (Marine Drugs, 2019)
Bridge positions count the residues as written; N and C are the ends. Peptide text beside a SMILES is read from it.

Target: T1, rα3β2 nAChRs expressed in Xenopus laevis oocytes (Rattus norvegicus, UniProt P04757+P12390)
T1 construct: expressed in transfected cells; host or cells: Xenopus laevis oocytes, injected with α3 and β2 mRNA; clones from Dr. Steven Heinemann, Salk Institute
Test: cell-based
Conditions: SEM

T1 sequence (P04757 26-499 limits assumed): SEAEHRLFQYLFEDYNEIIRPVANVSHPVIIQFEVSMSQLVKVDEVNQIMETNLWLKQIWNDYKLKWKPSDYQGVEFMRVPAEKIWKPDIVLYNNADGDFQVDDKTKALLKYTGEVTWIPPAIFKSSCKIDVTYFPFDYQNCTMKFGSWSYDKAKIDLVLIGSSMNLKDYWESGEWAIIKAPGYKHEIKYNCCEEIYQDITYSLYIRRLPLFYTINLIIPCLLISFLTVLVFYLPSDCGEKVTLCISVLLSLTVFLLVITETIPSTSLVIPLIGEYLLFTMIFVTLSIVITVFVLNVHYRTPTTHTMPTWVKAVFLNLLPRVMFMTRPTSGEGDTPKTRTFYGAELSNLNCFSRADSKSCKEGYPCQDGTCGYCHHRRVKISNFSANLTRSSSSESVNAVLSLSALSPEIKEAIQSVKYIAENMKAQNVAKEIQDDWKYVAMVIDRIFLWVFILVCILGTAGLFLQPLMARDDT
T1 sequence (P12390 25-500 limits assumed): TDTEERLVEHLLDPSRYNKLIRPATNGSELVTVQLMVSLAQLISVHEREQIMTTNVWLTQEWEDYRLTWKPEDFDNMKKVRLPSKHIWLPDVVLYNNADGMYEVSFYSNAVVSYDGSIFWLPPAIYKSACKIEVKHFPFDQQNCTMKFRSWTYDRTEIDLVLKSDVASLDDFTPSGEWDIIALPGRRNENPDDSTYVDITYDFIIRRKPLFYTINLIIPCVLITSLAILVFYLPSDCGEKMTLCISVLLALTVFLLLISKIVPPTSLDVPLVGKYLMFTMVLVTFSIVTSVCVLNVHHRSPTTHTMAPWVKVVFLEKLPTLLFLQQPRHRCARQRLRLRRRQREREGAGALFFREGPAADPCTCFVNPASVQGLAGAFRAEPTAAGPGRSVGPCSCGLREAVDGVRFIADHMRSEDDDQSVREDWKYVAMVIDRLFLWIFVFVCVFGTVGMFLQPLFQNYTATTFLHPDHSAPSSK

`NCCCC[C@@H]1NC(=O)[C@H](CO)NC(=O)[C@H](CO)NC(=O)[C@H](CO)NC(=O)[C@H](Cc2c[nH]c3ccccc23)NC(=O)[C@H](Cc2ccc(O)cc2)NC(=O)[C@@H]2CSSC[C@H](NC(=O)[C@@H](NC(=O)[C@@H](N)Cc3c[nH]c4ccccc34)CSSC[C@@H](C(=O)O)NC(=O)[C@H](Cc3c[nH]c4ccccc34)NC1=O)C(=O)N[C@@H](CO)C(=O)N[C@@H](Cc1ccc(O)cc1)C(=O)N1CCC[C@H]1C(=O)NCC(=O)N2` [KTM] (H-WCCSYPGCYWSSSKWC-OH; disulfide 2-16, 3-8) was tested, and the IC50 was 0.19 ± 0.02 nM.
